Patent US9867811B2, “Method of treating atherosclerosis in high triglyceride subjects” (NOVARTIS AG, priority 2011, dated 2018)
Like-named read-outs stand apart in the source and are kept apart here.

Target: T1, CETP (Homo sapiens, UniProt P11597)
T1 construct: Human serum samples were obtained from the Novartis Institutes for BioMedical Research donor program; tissue Novartis donor program; Bioreclamation (Westbury, N.Y.); Uniglobe (Reseda, Calif.); host or cells: pooled human donor serum
T1 sequence (P11597 18-493): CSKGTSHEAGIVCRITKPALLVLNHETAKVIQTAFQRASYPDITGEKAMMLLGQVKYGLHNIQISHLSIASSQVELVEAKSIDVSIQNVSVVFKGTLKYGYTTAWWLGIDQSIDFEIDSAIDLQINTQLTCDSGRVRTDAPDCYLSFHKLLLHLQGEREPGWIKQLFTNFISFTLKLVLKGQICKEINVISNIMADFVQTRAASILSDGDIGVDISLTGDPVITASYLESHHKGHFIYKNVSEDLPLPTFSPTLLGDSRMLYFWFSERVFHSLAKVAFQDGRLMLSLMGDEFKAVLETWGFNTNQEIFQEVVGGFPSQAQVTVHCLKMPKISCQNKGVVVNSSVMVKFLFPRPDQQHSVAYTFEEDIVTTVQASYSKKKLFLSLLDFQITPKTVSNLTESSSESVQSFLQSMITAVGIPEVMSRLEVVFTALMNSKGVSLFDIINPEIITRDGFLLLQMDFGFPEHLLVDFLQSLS
Test: In vitro CETP activity assay in human plasma (serum pools of differing triglyceride level)
Assay type: biochemical
Conditions: for IC50: human serum pool
Protocol: Pro-apoA-1 containing microemulsion as a donor particle was prepared following previous report (J. Biol. Chem., 280:14918-22). Glyceryl trioleate (500 ug, Sigma-Aldrich, Cat. No. T7140), 3-sn-phosphatidylcholine (4680 ug, Sigma, Cat. No. P2772), and cholesteryl BODIPY FL 012 (2 mg, Invitrogen, CA, Cat. No. C-3927MP) were dissolved in 1.5 mL of chloroform. The solution was evaporated, and residual solvent was removed under vacuum for more than 1 hr at room temperature. The dried lipid mixture was dissolved in 7 ml of the assay buffer (50 mM Tris-HCl (pH 7.4) containing 150 mM NaCl and 2 mM EDTA) and sonicated in water bath for 1 hr. The solution was split into two tubes of 3.5 ml each. Each tube was sonicated at 50° C. with a microtip (MICROSON™ ULTRASONIC CELL DISRUPTOR, Misonix, Farmingdale, N.Y.) at output power 006 for 10 min (every other 25 seconds). The solution was cooled to 40° C. and 400 ug of pro-apoA-1 was added to each tube (total volume of 4 mL). Then, the solution was sonicated at output power 004 for 20 min (every other 30 seconds). Final Concentration: Glyceryl Tiroleate: 62.5 ug/ml, PC: 585 ug/ml, Bodipy CE: 250 ug/ml, Pro-apoA-1: 100 ug/ml. Centrifuge solution at 5200×g for 5 minutes and store the supernatant at 4′C.
Human serum samples were obtained from the Novartis Institutes for BioMedical Research donor program (normal triglyceride samples) or purchased from Bioreclamation (Westbury, N.Y.) or Uniglobe (Reseda, Calif.). General requirements for human serum donors included: male gender, 20-55 years of age, not currently on a lipid altering medication, non-fasting at time of blood collection, and a total cholesterol level between 200-300 mg/dL. Donor samples were selected primarily on the basis of serum triglyceride level, using the following classifications: normal triglycerides (<150 mg/dL); high triglycerides (300-500 mg/dL); and very high triglycerides (750-1200 mg/dL). A total of 4 individual serum samples from each classification were used in these experiments. For each of the 3 triglyceride classifications, two serum sample pools were prepared. The mean plasma triglyceride concentrations (mg/dL) for the pools were: Normal: 101.35; High: 347.5; Very high 1, 868.45; Very high 2, 1269.35.
Donor solution is prepared by a dilution of donor microemulsion with assay buffer (1.7 ul donor+8.3 ul Buffer). Human serum (25 μL), assay buffer (14 μL) and 50× test compound dissolved in 100% dimethylsulfoxide (1 μL) are added to each well of 384 well black, clear-bottom plate (NUNC. Thermo Fisher #242764). The reaction is started by the addition of donor solution (10 μL) into each well. Fluorescence intensities are measured every 10 min at 37° C. with excitation wave length of 485 nm and emission wavelength of 515 nm over an 80 minute period, using a SpectraMax M5 from Molecular Devices (Sunnyvale, Calif.). The CETP activity (RFU/min) is defined as the change of fluorescence intensity from 40 to 70 min. Percent CETP inhibition is calculated as follows: ((100% Act−Wellcmpnd)/100% Act))*100. IC50 values were calculated with GraphPad Prism 5 software.

Retention of CETP inhibitory activity in plasma from hypertriglyceridemic human subjects (in vitro, plasma from subjects with elevated triglycerides)	IC50 (TG = 101.35 mg/dL (normal), read-out: CETP IC50 (nM) TG = 101.35 mg/dL) [nM]	IC50 (TG = 374.5 mg/dL (high), read-out: CETP IC50 (nM) TG = 374.5 mg/dL) [nM]	IC50 (TG = 1269.35 mg/dL (very high 2), read-out: CETP IC50 (nM) TG = 1269.35 mg/dL) [nM]	Structure (SMILES)
does not retain its potency				COc1cc(F)c(C(C)C)cc1-c1ccc(C(F)(F)F)cc1CN1C(=O)O[C@H](c2cc(C(F)(F)F)cc(C(F)(F)F)c2)[C@@H]1C [Anacetrapib, reference compound]
	88.4	51.9	61.4	CC[C@@H]1C[C@H](N(Cc2cc(C(F)(F)F)cc(C(F)(F)F)c2)c2ncc(-c3cnn(C)c3)cn2)C[C@H](CC)N1C(=O)O[C@H]1CC[C@H](C(=O)O)CC1 [Example 8]
